Data reported in patent US20070129344A1, “Bicyclic 6-alkylidene-penem beta-lactamase inhibitors and beta-lactam antibiotic combination: a broad spectrum antibiotic” (priority 2005, published 2007).
Converted amounts (≈) assume the structure as drawn. Like-named read-outs stand apart in the source and are kept apart here.

Experiments:
[1] = test system: E. cloacae GC 6991 (AmpC); experiment: MIC microbroth dilution; β-lactamase class C; assay type: cell-based; conditions: Enterobacter cloacae, Cefepime alone, read-out: MIC
Description: (§1) The in vitro activities of the antibiotics were determined by the microbroth dilution method as recommended by the National Committee for Clinical Laboratory Standards (NCCLS). (NCCLS. 2000. Methods for Dilution Antimicrobial Susceptibility Tests for Bacteria That Grow Aerobically; Approved Standards: M7-A5, vol. 19. National Committee for Clinical Laboratory Standards, Villanova, Pa.). Mueller-Hinton II broth (MHBII)(BBL Cockeysville, Md.), was used for the testing procedure. […]. The plates were incubated for 18-22 hours at 35° C. in ambient air.

[2] = test system: S. marcescens GC 4145 Inducible AmpC; experiment: MIC microbroth dilution; β-lactamase class C; assay type: cell-based; conditions: Serratia marcescens, Cefepime alone, read-out: MIC
Description: as §1

[3] = test system: K. pneumoniae GC 7822 Act 1; experiment: MIC microbroth dilution; β-lactamase class C; assay type: cell-based
Description: as §1

[4] = test system: K. pneumoniae GC 7824 Fox 5; experiment: MIC microbroth dilution; β-lactamase class C; assay type: cell-based
Description: as §1

[5] = test system: P. aeruginosa ATCC 27853 AmpC-inducable; experiment: MIC microbroth dilution; β-lactamase class C; assay type: cell-based
Description: as §1

[6] = test system: S. marcescens GC 4132 (AmpC); experiment: MIC microbroth dilution; β-lactamase class C; assay type: cell-based; conditions: Serratia marcescens, Cefepime alone, read-out: MIC
Description: as §1

[7] = test system: P. aeruginosa GC 1763 AmpC-inducible; experiment: MIC microbroth dilution; β-lactamase class C; assay type: cell-based; conditions: Cefepime alone
Description: as §1

[8] = test system: E. aerogenes GC 7036 TEM-24, Amp C inducable; experiment: MIC microbroth dilution; β-lactamase class A (ESBL), C; assay type: cell-based; conditions: Klebsiella aerogenes, Cefepime alone, read-out: MIC
Description: as §1

[9] = test system: M. morganii GC 1617 TEM-10 + inducible AmpC; experiment: as above; assay type: cell-based; conditions: Cefepime alone
Description: as §1

[10] = test system: E. cloacae GC 7065 TEM-26, SHV-12 Amp C inducable; experiment: as above; assay type: cell-based; conditions: Enterobacter cloacae, Cefepime alone, read-out: MIC
Description: as §1

[11] = test system: E. aerogenes GC 7039 TEM-4, Amp C inducable; experiment: as above; assay type: cell-based; conditions: Klebsiella aerogenes, Cefepime alone, read-out: MIC
Description: as §1

[12] = test system: E. cloacae GC 7052 SHV-5, Amp C inducable; experiment: as above; assay type: cell-based; conditions: Cefepime alone
Description: as §1

[13] = test system: E. coli GAR 5929 TEM, OXA, Act-1, CTX (By PCR only); experiment: MIC microbroth dilution; β-lactamase class A, C, D; assay type: cell-based; conditions: Cefepime alone
Description: as §1

[14] = test system: E. coli GC 2920 (IRT-2); experiment: MIC microbroth dilution; β-lactamase class A (IRT); assay type: cell-based; conditions: Cefepime alone
Description: as §1

[15] = test system: K. pn GC 2391 (pl 5.4; 5.6; 7.6; 8.7 B-lactamases); experiment: MIC microbroth dilution; β-lactamase class A, A (ESBL), C; assay type: cell-based, K. pneumoniae; conditions: Klebsiella pneumoniae, Cefepime alone, read-out: MIC
Description: as §1

[16] = test system: E. coli GC 1807 OXA-7; experiment: MIC microbroth dilution; β-lactamase class D; assay type: cell-based; conditions: Escherichia coli, GC1807OXA7, E. coli GC 1807, Cefepime alone, read-out: MIC
Description: as §1

[17] = test system: E. coli GC 1480 OXA-1; experiment: MIC microbroth dilution; β-lactamase class D; assay type: cell-based; conditions: Escherichia coli, GC1480OXA1, E. coli GC 1480, Cefepime alone, read-out: MIC
Description: as §1

[18] = test system: E. coli GC 4971 OXA-1, TEM-1; experiment: MIC microbroth dilution; β-lactamase class A, D; assay type: cell-based; conditions: Escherichia coli, Cefepime alone, read-out: MIC
Description: as §1

[19] = test system: C. freundii GC 4171 TEM-1 + InducibleAmpC; experiment: MIC microbroth dilution; β-lactamase class A, C; assay type: cell-based
Description: as §1

[20] = test system: E. coli GC 2844 (none); experiment: MIC microbroth dilution; β-lactamase class none; assay type: cell-based; conditions: Cefepime alone
Description: as §1

[21] = test system: E. coli GC 2804 (imp); experiment: MIC microbroth dilution; β-lactamase class none; assay type: cell-based; conditions: Escherichia coli, Cefepime alone
Description: as §1

[22] = test system: E. coli ATCC 25922 (none); experiment: MIC microbroth dilution; β-lactamase class none; assay type: cell-based; conditions: Escherichia coli, ATCC25922, E. coli ATCC 25922, Cefepime alone, read-out: MIC
Description: as §1

[23] = test system: E. coli GAR 6649 TEM, OXA, CTX (By PCR only); experiment: MIC microbroth dilution; β-lactamase class A, A (ESBL), D; assay type: cell-based; conditions: Cefepime alone
Description: as §1

[24] = test system: S. marcescens GC 1781 (Sme-1 + AmpC); experiment: MIC microbroth dilution; β-lactamase class A (Cb'ase), C; assay type: cell-based; conditions: Serratia marcescens, Cefepime alone, read-out: MIC
Description: as §1

[25] = test system: K. pn GC 6494 (TEM-1 + SHV-5); experiment: MIC microbroth dilution; β-lactamase class A, A (ESBL); assay type: cell-based, K. pneumoniae; conditions: Klebsiella pneumoniae, Cefepime alone, read-out: MIC
Description: as §1

[26] = test system: K. pn GC 1554 (TEM-1 + TEM-26 + SHV-1); experiment: as above; assay type: cell-based, K. pneumoniae; conditions: Klebsiella pneumoniae, Cefepime alone, read-out: MIC
Description: as §1

[27] = test system: K. pn GC 1507 (TEM-9 + SHV-1); experiment: as above; assay type: cell-based, K. pneumoniae; conditions: Cefepime alone
Description: as §1

[28] = test system: K. pn GC 6657 (TEM-1 + SHV-27); experiment: as above; assay type: cell-based, K. pneumoniae; conditions: Cefepime alone
Description: as §1

[29] = test system: K. pn GC 6488 (TEM-1 + SHV-5 + SHV-7); experiment: as above; assay type: cell-based, K. pneumoniae; conditions: Klebsiella pneumoniae, Cefepime alone, read-out: MIC
Description: as §1

[30] = test system: K. pn GC 1963 (TEM-10 + SHV-1 + SHV-ESBL); experiment: as above; assay type: cell-based, K. pneumoniae; conditions: Cefepime alone
Description: as §1

[31] = test system: K. pn GC 2006 (TEM-10 + SHV-1); experiment: as above; assay type: cell-based, K. pneumoniae; conditions: Klebsiella pneumoniae, Cefepime alone, read-out: MIC
Description: as §1

[32] = test system: K. pn GC 6651 (TEM-1 + SHV-1 + SHV-5); experiment: as above; assay type: cell-based, K. pneumoniae; conditions: Klebsiella pneumoniae, Cefepime alone, read-out: MIC
Description: as §1

[33] = test system: K. pn GC 3057 (CAZ-R; P/T-R); experiment: as above; assay type: cell-based, K. pneumoniae; conditions: Cefepime alone
Description: as §1

[34] = Cefepime alone, control of Compound 2 test
[35] = Escherichia coli, control of Compound 1 test, read-out: MIC
[36] = Klebsiella pneumoniae, control of Compound 1 test, read-out: MIC

## CO/N=C(\C(=O)N[C@@H]1C(=O)N2C(C(=O)[O-])=C(C[N+]3(C)CCCC3)CS[C@H]12)c1csc(N)n1 [Cefepime, reference compound]
[1]; control of Compound 1 test
  MIC: 0.5 µg/mL (≈ 1.04 µM)
[1]; control of Compound 2 test
  MIC: 1 µg/mL (≈ 2.08 µM)
[2]; control of Compound 1 test
  MIC: 1 µg/mL (≈ 2.08 µM)
[2]; control of Compound 2 test
  MIC: 0.5 µg/mL (≈ 1.04 µM)
[3]; [34]
  MIC: >16 µg/mL
[3]; Klebsiella pneumoniae, GC7822ACT1, Cefepime alone, control of Compound 1 test, read-out: MIC
  MIC: > 16 µg/mL
[4]; [34]
  MIC: 2 µg/mL (≈ 4.16 µM)
[4]; Klebsiella pneumoniae, GC7824FOX5, Cefepime alone, control of Compound 1 test, read-out: MIC
  MIC: 2 µg/mL (≈ 4.16 µM)
[5]; [34]
  MIC: 2 µg/mL (≈ 4.16 µM)
[5]; Pseudomonas aeruginosa, ATCC27853, Cefepime alone, control of Compound 1 test, read-out: MIC
  MIC: 2 µg/mL (≈ 4.16 µM)
[6]; control of Compound 1 test
  MIC: 0.5 µg/mL (≈ 1.04 µM)
[6]; control of Compound 2 test
  MIC: 2 µg/mL (≈ 4.16 µM)
[7]; control of Compound 2 test
  MIC: 2 µg/mL (≈ 4.16 µM)
[7]; Pseudomonas aeruginosa, control of Compound 1 test, read-out: MIC
  MIC: 2 µg/mL (≈ 4.16 µM)
[8]; control of Compound 1 test
  MIC: 2 µg/mL (≈ 4.16 µM)
[8]; control of Compound 2 test
  MIC: 4 µg/mL (≈ 8.32 µM)
[9]; control of Compound 2 test
  MIC: 0.25 µg/mL (≈ 0.52 µM)
[9]; Morganella morganii, control of Compound 1 test, read-out: MIC
  MIC: 0.25 µg/mL (≈ 0.52 µM)
[10]; control of Compound 1 test
  MIC: 4 µg/mL (≈ 8.32 µM)
[10]; control of Compound 2 test
  MIC: 16 µg/mL (≈ 33.3 µM)
[11]; control of Compound 1 test
  MIC: 16 µg/mL (≈ 33.3 µM)
[11]; control of Compound 2 test
  MIC: > 16 µg/mL
[12]; control of Compound 2 test
  MIC: 16 µg/mL (≈ 33.3 µM)
[12]; Enterobacter cloacae, control of Compound 1 test, read-out: MIC
  MIC: 16 µg/mL (≈ 33.3 µM)
[13]; control of Compound 2 test
  MIC: >16 µg/mL
[13]; [35]
  MIC: > 16 µg/mL
[14]; control of Compound 2 test
  MIC: 0.06 µg/mL (≈ 0.125 µM)
[14]; [35]
  MIC: 0.06 µg/mL (≈ 0.125 µM)
[15]; control of Compound 1 test
  MIC: 16 µg/mL (≈ 33.3 µM)
[15]; control of Compound 2 test
  MIC: 4 µg/mL (≈ 8.32 µM)
[16]; control of Compound 1 test
  MIC: 0.12 µg/mL (≈ 0.25 µM)
[16]; control of Compound 2 test
  MIC: 0.25 µg/mL (≈ 0.52 µM)
[17]; control of Compound 1 test
  MIC: 4 µg/mL (≈ 8.32 µM)
[17]; control of Compound 2 test
  MIC: 2 µg/mL (≈ 4.16 µM)
[18]; control of Compound 1 test
  MIC: 2 µg/mL (≈ 4.16 µM)
[18]; control of Compound 2 test
  MIC: 4 µg/mL (≈ 8.32 µM)
[19]; C. freundii GC 4171, Cefepime alone, control of Compound 2 test
  MIC: 4 µg/mL (≈ 8.32 µM)
[19]; Citrobacter freundii
  MIC: 4 µg/mL (≈ 8.32 µM)
[20]; control of Compound 2 test
  MIC: 0.06 µg/mL (≈ 0.125 µM)
[20]; [35]
  MIC: 0.06 µg/mL (≈ 0.125 µM)
[21]; control of Compound 1 test
  MIC: 0.03 µg/mL (≈ 0.0624 µM)
[21]; control of Compound 2 test
  MIC: < 0.015 µg/mL
[22]; control of Compound 1 test
  MIC: 0.03 µg/mL (≈ 0.0624 µM)
[22]; control of Compound 2 test
  MIC: 0.06 µg/mL (≈ 0.125 µM)
[23]; control of Compound 2 test
  MIC: >16 µg/mL
[23]; [35]
  MIC: > 16 µg/mL
[24]; control of Compound 1 test
  MIC: 0.25 µg/mL (≈ 0.52 µM)
[24]; control of Compound 2 test
  MIC: 0.06 µg/mL (≈ 0.125 µM)
[25]; control of Compound 1 test
  MIC: 4 µg/mL (≈ 8.32 µM)
[25]; control of Compound 2 test
  MIC: 2 µg/mL (≈ 4.16 µM)
[26]; control of Compound 1 test
  MIC: > 16 µg/mL
[26]; control of Compound 2 test
  MIC: 8 µg/mL (≈ 16.6 µM)
[27]; control of Compound 2 test
  MIC: 8 µg/mL (≈ 16.6 µM)
[27]; [36]
  MIC: 8 µg/mL (≈ 16.6 µM)
[28]; control of Compound 2 test
  MIC: 0.12 µg/mL (≈ 0.25 µM)
[28]; [36]
  MIC: 0.12 µg/mL (≈ 0.25 µM)
[29]; control of Compound 1 test
  MIC: 8 µg/mL (≈ 16.6 µM)
[29]; control of Compound 2 test
  MIC: 4 µg/mL (≈ 8.32 µM)
[30]; control of Compound 2 test
  MIC: >16 µg/mL
[30]; [36]
  MIC: > 16 µg/mL
[31]; control of Compound 1 test
  MIC: > 16 µg/mL
[31]; control of Compound 2 test
  MIC: 8 µg/mL (≈ 16.6 µM)
[32]; control of Compound 1 test
  MIC: 8 µg/mL (≈ 16.6 µM)
[32]; control of Compound 2 test
  MIC: 4 µg/mL (≈ 8.32 µM)
[33]; control of Compound 2 test
  MIC: >16 µg/mL
[33]; [36]
  MIC: > 16 µg/mL
